In patent publication US10098350B2, “Fungicidal amides” (E. I. DU PONT DE NEMOURS AND COMPANY, priority 2013, dated 2018):

Tests used:
Type in all cases: in vivo
[1] = test system: Botrytis cinerea; assay: Test A: tomato seedlings sprayed with test suspension, inoculated with Botrytis cinerea (gray mold), visual disease rating
Description: General protocol for preparing test suspensions for Tests A-E: the test compounds were first dissolved in acetone in an amount equal to 3% of the final volume and then suspended at the desired concentration (in ppm) in acetone and purified water (50/50 mix by volume) containing 250 ppm of the surfactant Trem® 014 (polyhydric alcohol esters). The resulting test suspensions were then used in Tests A-E. Samples were applied to plants at either a 10 ppm (**), 40 ppm, 50 ppm (*) or 200 ppm (#) test solution to the point of run-off on the test plants with the equivalent of a rate of 40 g ai/ha, 160 g ai/ha, 200 g ai/ha, or 800 g ai/ha, respectively.
The test suspension was sprayed to the point of run-off on tomato seedlings. The following day the seedlings were inoculated with a spore suspension of Botrytis cinerea (the causal agent of gray mold on many crops) and incubated in a saturated atmosphere at 20° C. for 48 h, and moved to a growth chamber at 27° C. for 2 days, after which time visual disease ratings were made.
Results for Tests A-E are given in Table A. In the Table, a rating of 100 indicates 100% disease control and a rating of 0 indicates no disease control (relative to the controls). A dash (-) indicates no test results.

[2] = test system: Erysiphe graminis f. sp. tritici; assay: Test E: wheat seedlings sprayed with test suspension, inoculated with Erysiphe graminis f. sp. tritici (wheat powdery mildew), visual disease rating
How it was run: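 Wheat seedlings sprayed to run-off with compound suspension (acetone 3%, acetone/water 50/50 with 250 ppm Trem 014) at 10, 40, 50 or 200 ppm (40–800 g ai/ha), inoculated next day with spore dust. Incubated 7 or 8 days at 20° C, then rated visually as % disease control relative to controls (0–100).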

[3] = test system: Septoria tritici; assay: Test C: wheat seedlings sprayed with test suspension, inoculated with Septoria tritici (wheat leaf blotch), visual disease rating
How it was run: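 Wheat seedlings sprayed to run-off with compound suspended in acetone/water with 250 ppm Trem 014, at 10, 40, 50 or 200 ppm (40–800 g ai/ha). Inoculated with Septoria tritici spores the next day, held 48 h saturated at 24 °C, then 21 days at 20 °C. Visual rating 0–100% disease control relative to controls.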

[4] = test system: Puccinia recondite f. sp. tritici; assay: Test D: wheat seedlings sprayed with test suspension, inoculated with Puccinia recondite f. sp. tritici (wheat leaf rust), visual disease rating
How it was run: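 Wheat seedlings were sprayed to run-off with compound suspended in 50/50 acetone–water containing 250 ppm Trem 014, at 10-200 ppm (40-800 g ai/ha). They were inoculated with rust spores the next day, then kept 24 h saturated at 20 °C and 6 days at 20 °C. Scores are visual % disease control versus untreated controls.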

[5] = test system: Stagonospora nodorum (also known as Septoria nodorum); assay: Test B: wheat seedlings sprayed with test suspension, inoculated with Stagonospora nodorum (wheat glume blotch), visual disease rating
How it was run: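 Compounds in acetone/water 50/50 with 250 ppm Trem 014 were sprayed to run-off on wheat seedlings at 10, 40, 50 or 200 ppm (40–800 g ai/ha). Plants were inoculated next day, held 48 h saturated at 20 °C, then 6 days in a growth chamber at 20 °C. Visual rating 0–100% disease control relative to controls.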

[6] = Cmpd. No. marked '#' (other test rate; meaning of mark not shown)
[7] = Cmpd. No. unmarked, 100 = 100% disease control, 0 = no control relative to controls
[8] = Cmpd. No. marked '*' (other test rate; meaning of mark not shown)

Compound	Test A rating (% disease control) [1, 6]	Test A rating (% disease control) [1, 7]	Test E rating (% disease control) [2, 6]	Test E rating (% disease control) [2, 7]	Test C rating (% disease control) [3, 6]	Test C rating (% disease control) [3, 7]	Test D rating (% disease control) [4, 6]	Test D rating (% disease control) [4, 7]	Test B rating (% disease control) [5, 6]	Test B rating (% disease control) [5, 7]	Test A rating (% disease control) [1, 8]	Test E rating (% disease control) [2, 8]	Test C rating (% disease control) [3, 8]	Test D rating (% disease control) [4, 8]	Test B rating (% disease control) [5, 8]
CC(c1ccc(-n2ccc(C(F)(F)F)n2)nc1)N(C(=O)c1cn(C)nc1C(F)F)C1CC1 (stereo not drawn) [Compound 1, N-cyclopropyl-3-(difluoromethyl)-1-methyl-N-[1-[6-[3-(trifluoromethyl)-1H-pyrazol-1-yl]-3-pyridinyl]ethyl]-1H-pyrazole-4-carboxamide]	0%	0%	98%	96%	93%	86%	28%	0%	69%	0%					
Cn1nc(C(F)F)c(C(=O)N(Cc2cccc(-n3ccc(C(F)(F)F)n3)c2)C2CC2)c1F [Compound 3, N-cyclopropyl-3-(difluoromethyl)-5-fluoro-1-methyl-N-[[3-[3-(trifluoromethyl)-1H-pyrazol-1-yl]phenyl]methyl]-1H-pyrazole-4-carboxamide]		0%		99%		100%		99%		100%					
Cn1cc(C(=O)N(Cc2cccc(-n3ccc(C(F)(F)F)n3)c2)C2CC2)c(C(F)F)n1 [Compound 9, N-cyclopropyl-3-(difluoromethyl)-1-methyl-N-[[3-[3-(trifluoromethyl)-1H-pyrazol-1-yl]phenyl]methyl]-1H-pyrazole-4-carboxamide]	39%	9%	96%	81%	100%	96%	74%	9%	99%	93%					
Cn1cc(C(=O)N(Cc2ccc(-n3cc(Br)cn3)cc2Cl)C2CC2)c(C(F)F)n1 [Compound 10]		0%		0%		38%		86%		99%					
Cn1nc(C(F)F)c(C(=O)N(Cc2ccc(-n3ccc(C(F)(F)F)n3)cc2Cl)C2CC2)c1F [Compound 12, N-[[2-chloro-4-[3-(trifluoromethyl)-1H-pyrazol-1-yl]phenyl]methyl]-N-cyclopropyl-3-(difluoromethyl)-5-fluoro-1-methyl-1H-pyrazole-4-carboxamide]		0%		97%		100%		99%		100%					
Cn1cc(C(=O)N(Cc2ccc(-n3ccc(C(F)(F)F)n3)cc2Cl)C2CC2)c(C(F)(F)F)n1 [Compound 35]		0%		0%		89%		9%		0%					
Cn1cc(C(=O)N(Cc2cnc(-n3ccc(C(F)(F)F)n3)cc2Cl)C2CC2)c(C(F)(F)F)n1 [Compound 148]											0%	0%	9%	0%	0%
Cn1cc(C(=O)N(Cc2cccc(-n3ccc(C(F)(F)F)n3)c2)C2CC2)c(C(F)(F)F)n1 [Compound 149]		0%		0%		43%		0%		0%					
Cc1nc(C(F)(F)F)c(C(=O)N(Cc2cccc(-n3ccc(C(F)(F)F)n3)c2)C2CC2)s1 [Compound 150]		0%		0%		48%		9%		0%					
Cc1nc(C(F)(F)F)c(C(=O)N(Cc2ccc(-n3ccc(C(F)(F)F)n3)cc2Cl)C2CC2)s1 [Compound 151]		23%		0%		87%		23%		0%					
Cc1ccsc1C(=O)N(Cc1cccc(-n2ccc(C(F)(F)F)n2)c1)C1CC1 [Compound 152]		0%		0%		0%		0%		0%					
Cn1cc(C(=O)N(Cc2ccc(-n3ccc(Cl)n3)cn2)C2CC2)c(C(F)F)n1 [compound 5]	0%	0%	0%	0%	80%	17%	28%	0%	0%	0%					
Cc1ccc(C(C)N(C(=O)c2cn(C)nc2C(F)F)C2CC2)cc1-n1ccc(C(F)(F)F)n1 (stereo not drawn) [compound 26]		0%		81%				0%		99%					
Cn1cc(C(=O)N(Cc2cc(-n3ccc(C(F)(F)F)n3)ccc2Br)C2CC2)c(C(F)F)n1 [compound 32]		0%		97%				0%		0%					
Cn1cc(C(=O)N(Cc2cc(-n3ccc(C(F)(F)F)n3)ccc2C2CC2)C2CC2)c(C(F)F)n1 [compound 33]		0%		94%				68%		98%					
Cn1cc(C(=O)N(Cc2c(Cl)cc(-n3ccc(C(F)(F)F)n3)cc2Cl)C2CC2)c(C(F)F)n1 [compound 36]		0%		90%				99%		99%					
Cn1nc(C(F)F)c(C(=O)N(Cc2ccc(-n3ccc(C(F)(F)F)n3)cc2C(F)(F)F)C2CC2)c1F [compound 37]		0%		99%				97%		100%					
Cn1cc(C(=O)N(Cc2cccc(-n3ccc(C(F)(F)F)n3)c2Cl)C2CC2)c(C(F)F)n1 [compound 38]		14%		69%				41%		0%					
